Measured values taken from patent publication US20120178786A9, “Use of tetramic acid derivatives for controlling pests by drenching, drip application, or dip application” (priority 2006, published 2012).

Tested on: foliar nematode Aphelenchoides fragariae
Assay: Example 16: dip treatment of lily bulbs, number of infested plants
Format: in vivo
Details: control 8
Procedure: The bulbs of 15 lily plants cv. “L.A. Glow” (growth stage 14/16) are dipped, in four replications, into an active substance solution containing the active substance I-4 (cis isomer, formulation: 240 SC) at the concentrations stated and subsequently planted into boxes 40×60 cm in size. The bulbs came from a field which was homogeneously infested with the foliar nematode Aphelenchoides fragariae. The number of infested plants is determined by examining leaves under the microscope for foliar nematodes 92 days after the dip treatment.

**Q.** CCOC(=O)OC1=C(c2cc(C)ccc2C)C(=O)N[C@]12CC[C@@H](OC)CC2 [Example I-4] was tested. Which Infested plants (comparison: foliar treatment with 150 g/ha, 15 lily plants) did it give?
**A.** Its Infested plants is 6.

**Q.** What about the Infested plants (lily bulbs dipped, a.i. 0.075 %, 15 plants, 92 days after dip treatment) of the same molecule?
**A.** The Infested plants was 0.

**Q.** And the Infested plants (lily bulbs dipped, a.i. 0.15 %, 15 plants, 92 days after dip treatment)?
**A.** Its Infested plants is 0.
